Experiments:
[1] = system: ECHCG; experiment: Pre-emergence herbicidal action against ECHCG; format: in vivo, Echinochloa crus-galli; details: 80 g/ha
How it was run: (§1)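 Herbicidal effect was assessed 3 weeks after treatment by visual comparison with untreated controls, 100% denoting dead plants. Aqueous WP or EC preparations had been applied at 600 to 800 l/ha with 0.2% wetting agent to the soil covering freshly sown seeds.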

[2] = system: VIOTR; experiment: Post-emergence herbicidal action against VIOTR; format: in vivo, Viola tricolor
How it was run: (§2)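 Post-emergence greenhouse test; one-leaf stage, 2–3 wk post-sowing, sandy loam. Foliar spray of WP/EC in water, 600–800 l/ha, +0.2% wetting agent. Visual % action at ~3 wk vs untreated (100% = plants dead).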

[3] = system: AMARE; experiment: Pre-emergence herbicidal action against AMARE; format: in vivo, Amaranthus retroflexus
How it was run: as §1

[4] = system: ALOMY; experiment: Post-emergence herbicidal action against ALOMY; format: in vivo, Alopecurus myosuroides; details: dosage 20 g/ha, visual assessment about 3 weeks after treatment vs untreated controls
How it was run: as §2

[5] = system: SETVI; experiment: Post-emergence herbicidal action against SETVI; format: in vivo, Setaria viridis
How it was run: as §2

[6] = system: POLCO; experiment: Pre-emergence herbicidal action against POLCO; format: in vivo, Polygonum convolvulus; details: dosage 80 g/ha
How it was run: as §1

[7] = system: ECHCG; experiment: Post-emergence herbicidal action against ECHCG; format: in vivo, Echinochloa crus-galli; details: dosage 20 g/ha
How it was run: as §2

[8] = system: PHBPU; experiment: Post-emergence herbicidal action against PHBPU; format: in vivo, Pharbitis purpurea; details: dosage 20 g/ha
How it was run: as §2

[9] = system: POLCO; experiment: Post-emergence herbicidal action against POLCO; format: in vivo, Polygonum convolvulus; details: dosage 20 g/ha
Procedure: Seeds of monocotyledonous and dicotyledonous weed and crop plants are laid out in sandy loam soil in wood-fiber pots, covered with soil and cultivated in a greenhouse under good growth conditions. 2 to 3 weeks after sowing, the test plants are treated at the one-leaf stage. The compounds of the invention, formulated in the form of wettable powders (WP) or as emulsion concentrates (EC), are then sprayed onto the green parts of the plants in the form of an aqueous suspension or emulsion at a water application rate equivalent to 600 to 800 l/ha, with addition of 0.2% wetting agent. After the test plants have been left to stand in the greenhouse under optimal growth conditions for about 3 weeks, the action of the preparations is assessed visually in comparison to untreated controls (herbicidal action in percent (%): 100% activity=the plants have died, 0% activity=like control plants). […] The tables below illustrate, in an illustrative manner, the post-emergence herbicidal action of the compounds of the invention, the herbicidal activity being stated in percent.

[10] = system: VIOTR; experiment: Pre-emergence herbicidal action against VIOTR; format: in vivo, Viola tricolor
How it was run: as §1

[11] = system: ALOMY; experiment: Pre-emergence herbicidal action against ALOMY; format: in vivo, Alopecurus myosuroides
How it was run: as §1

[12] = system: MATIN; experiment: Post-emergence herbicidal action against MATIN; format: in vivo, Matricaria inodora
How it was run: as §2

[13] = system: AVEFA; experiment: Pre-emergence herbicidal action against AVEFA; format: in vivo, Avena fatua; details: 80 g/ha, pre-emergence
How it was run: as §1

[14] = system: MATIN; experiment: Pre-emergence herbicidal action against MATIN; format: in vivo, Matricaria inodora
How it was run: as §1

[15] = system: PHBPU; experiment: Pre-emergence herbicidal action against PHBPU; format: in vivo, Pharbitis purpurea; details: dosage 80 g/ha
How it was run: as §1

[16] = system: DIGSA; experiment: Pre-emergence herbicidal action against DIGSA; format: in vivo, Digitaria sanguinalis
How it was run: as §1

[17] = system: ABUTH; experiment: Pre-emergence herbicidal action against ABUTH; format: in vivo, Abutilon theophrasti; details: for Pre-emergence action against ABUTH (herbicidal activity): 80 g/ha, scored visually after 3 weeks vs untreated controls (100% = plants have died, 0% = like control plants); for Pre-emergence action against ABUTH (herbicidal activity in percent): dosage 20 g/ha, scored visually after 3 weeks vs untreated controls, 100% = plants have died, 0% = like control plants
How it was run: as §1

[18] = system: SETVI; experiment: Pre-emergence herbicidal action against SETVI; format: in vivo, Setaria viridis; details: dosage 80 g/ha
How it was run: as §1

[19] = system: VERPE; experiment: Pre-emergence herbicidal action against VERPE; format: in vivo, Veronica persica; details: dosage 80 g/ha
How it was run: as §1

[20] = system: AMARE; experiment: Post-emergence herbicidal action against AMARE; format: in vivo, Amaranthus retroflexus; details: 20 g/ha, visual assessment about 3 weeks after treatment, 100% = plants have died, 0% = like control plants
How it was run: as §2

[21] = system: VERPE; experiment: Post-emergence herbicidal action against VERPE; format: in vivo, Veronica persica; details: 20 g/ha
How it was run: as §2

[22] = system: ABUTH; experiment: Post-emergence herbicidal action against ABUTH; format: in vivo, Abutilon theophrasti; details: visual assessment about 3 weeks after treatment vs untreated controls
How it was run: as §2

[23] = 20 g/ha, scored visually after 3 weeks vs untreated controls, 100% = plants have died, 0% = like control plants
[24] = 80 g/ha, scored visually after 3 weeks vs untreated controls (100% = plants have died, 0% = like control plants)

| Compound | Pre-emergence action against ECHCG in % [1] [%] | Post-emergence action against VIOTR in % ([2]; 20 g/ha) [%] | Pre-emergence action against AMARE in % [3, 23] [%] | Pre-emergence action against AMARE in % [3, 24] [%] | Post-emergence action against SETVI in % ([5]; dosage 20 g/ha) [%] | Pre-emergence action against POLCO in % [6] [%] | Post-emergence action against ECHCG in % [7] [%] | Post-emergence action against PHBPU in % [8] [%] | Post-emergence action against POLCO in % [9] [%] | Pre-emergence action against VIOTR in % ([10]; dosage 20 g/ha) [%] | Pre-emergence action against VIOTR in % ([10]; dosage 80 g/ha) [%] | Post-emergence action against MATIN in % ([12]; dosage 20 g/ha) [%] | Pre-emergence action against MATIN in % ([14]; dosage 20 g/ha) [%] | Pre-emergence action against MATIN in % ([14]; dosage 80 g/ha) [%] | Pre-emergence action against PHBPU in % [15] [%] | Pre-emergence action against DIGSA in % ([16]; dosage 20 g/ha) [%] | Pre-emergence action against DIGSA in % ([16]; dosage 80 g/ha) [%] | Pre-emergence action against ABUTH (herbicidal activity) [17] [%] | Pre-emergence action against ABUTH (herbicidal activity in percent) [17] [%] | Pre-emergence action against SETVI in % [18] [%] | also measured |
| --- | --- | --- | --- | --- | --- | --- | --- | --- | --- | --- | --- | --- | --- | --- | --- | --- | --- | --- | --- | --- | --- |
| CCn1nnnc1NC(=O)c1ccc(Br)c(C(=O)NCC2CC2)c1Cl [Example 2-180] | 100 | 100 | 100 | 100 | 90 | 90 | 90 | 90 | 100 | 100 | 100 | 80 | 100 | 100 | 100 | 100 | 100 | 100 | 100 | 100 | Post-emergence action against ALOMY in % [4]: 90%; Pre-emergence action against ALOMY ([11]; 20 g/ha, scored visually after 3 weeks, 100% = plants have died, 0% = like control plants): 80%; Pre-emergence action against ALOMY (herbicidal activity) ([11]; 80 g/ha, pre-emergence, scored visually after 3 weeks vs untreated controls (100% = plants have died, 0% = like control plants)): 100%; Pre-emergence action against AVEFA in % [13]: 80% |
| CCn1nnnc1NC(=O)c1ccc(C(F)F)c(C(=O)NC)c1C1CC1 [Example 2-304] | 90 | 90 | 100 | 100 | 80 | 80 | 80 | 90 | 80 | 90 | 100 | 90 | 90 | 100 | 90 | 90 | 100 | 100 | 100 | 90 | Post-emergence action against VIOTR in % ([2]; 5 g/ha): 80%; Pre-emergence action against VERPE in % [19]: 100%; Post-emergence action against SETVI in % ([5]; dosage 5 g/ha): 80%; Post-emergence action at 20 g/ha against AMARE in % [20]: 100%; Post-emergence action against MATIN in % ([12]; dosage 5 g/ha): 90%; Post-emergence action against VERPE in % [21]: 90%; Post-emergence action against ABUTH in % ([22]; dosage 5 g/ha): 90%; Post-emergence action against ABUTH in % ([22]; dosage 20 g/ha): 90% |

Reference: US12655116B2, “Substituted isophthalic acid diamides” (Bayer Aktiengesellschaft, priority 2020, dated 2026)
